Laboratory results published in US5498605A (priority 1994, dated 1996).

Experiments:
[1] = Rectal temperature in rats; type: in vivo, rat; settings: Sprague Dawley rats, vehicle caused small rise (approximately 1° C.)
Procedure: Rectal temperature was then recorded.

[2] = Sedation in rats after i.p. injection; type: in vivo, rat; settings: 25 and 50 mg/kg i.p., during one hour
A1 adenosine receptors = biological target: T1, A1 adenosine receptors (Rattus norvegicus, UniProt P25099); test: Inhibition of [3H]N6-phenylisopropyladenosine binding to A1 adenosine receptors in rat cerebral cortex membranes
T1 construct: Rat cerebral cortical membranes and striatal membranes were prepared; from tissue; host or cells: rat cerebral cortical membranes
T1 sequence (P25099 1-326): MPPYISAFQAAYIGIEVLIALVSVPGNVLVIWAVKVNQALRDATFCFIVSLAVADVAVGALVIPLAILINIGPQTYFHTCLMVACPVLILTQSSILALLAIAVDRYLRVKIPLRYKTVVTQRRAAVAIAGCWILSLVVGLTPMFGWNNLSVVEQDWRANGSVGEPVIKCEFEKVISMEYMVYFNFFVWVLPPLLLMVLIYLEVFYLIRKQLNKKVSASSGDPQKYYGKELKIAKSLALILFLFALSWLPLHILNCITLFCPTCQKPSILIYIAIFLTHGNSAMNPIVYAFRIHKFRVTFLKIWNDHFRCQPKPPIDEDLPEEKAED
Procedure: Bound and free radioligand were separated by addition of 4 mL of a solution containing 50 mM Tris hydrochloride, at pH 7.4 at 5° C., followed by vacuum filtration using a Brandel Cell Harvester (Brandel, Gaithersburg, Md.) and a Whatman GF/B glass fiber filter with additional washes totaling 12 mL of buffer.
(§1) At least seven different concentrations spanning four orders of magnitude, adjusted appropriately for the IC50 of each compound, were used.

lipolysis [3] = test: In vivo lipolysis (serum glycerol) in rats; parameters: species or system rat; settings: for lowering of serum glycerol levels: at 60 min
Procedure: Sprague Dawley rats (200-250 g) were fasted overnight. A blood sample was taken from the tail vein 10 sec before the subcutaneous injection of the drug in vehicle (10% DMSO in saline). Additional blood samples were taken from the tail vein at 30, 60 and 90 min post-injection and were kept on ice and centrifuged (1000 Xg) within one-half hour. A perchloric acid extract (3%) of plasma was neutralized with potassium hydroxide, 3-[N-morpholino]propanesulfonic acid, and then assayed for glycerol as described in Eggstein, et al., Methods of Enzymatic Analysis (H. U. Bermeyer ed., 1974), pp. 1825-1831.

lipolysis [4] = test: In vivo lipolysis (serum glycerol) in rats; parameters: species or system rat; settings: post i.p. injection
A2 adenosine receptors = A2 adenosine receptors (Rattus norvegicus, UniProt P30543); test: Inhibition of [3H]CGS 21680 binding to A2 receptors in rat striatal membranes; parameters: Rat cerebral cortical membranes and striatal membranes were prepared; from tissue; host or cells: rat striatal membranes; settings: rat striatum
Chain of A2 adenosine receptors (P30543 whole entry): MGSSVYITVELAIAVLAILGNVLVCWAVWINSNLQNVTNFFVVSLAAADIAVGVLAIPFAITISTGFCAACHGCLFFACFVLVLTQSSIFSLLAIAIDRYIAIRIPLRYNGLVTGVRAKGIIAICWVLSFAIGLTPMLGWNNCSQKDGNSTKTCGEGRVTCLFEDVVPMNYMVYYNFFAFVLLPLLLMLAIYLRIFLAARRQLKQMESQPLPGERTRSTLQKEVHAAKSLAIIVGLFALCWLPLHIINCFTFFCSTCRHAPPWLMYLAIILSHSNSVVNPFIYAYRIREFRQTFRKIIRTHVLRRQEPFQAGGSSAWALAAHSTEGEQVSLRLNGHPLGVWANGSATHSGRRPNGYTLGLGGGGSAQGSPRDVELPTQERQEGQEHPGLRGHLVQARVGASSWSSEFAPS
Procedure: Membranes (about 80 μg protein, 5 mg wet weight, per tube) were incubated for one hour at 25° C. in a total volume of 1 mL. […] Filtration was carried out using a Brandel Cell Harvester, as above.
as §1

[5] = tested on: synaptic potentials (fEPSPs) in CA1 region of hippocampal slices; test: Inhibition of synaptic potentials (fEPSPs) in hippocampal slices (species not specified for this result); parameters: species or system adult rats and gerbils
Procedure: Hippocampal slices were prepared from adult rats (200-300 g) and gerbils as described in Lee et al., Electrophysiology of Isolated Mammalian CNS Preparation (G. A. Kerkut and H. V. Wheat, eds. 1981), pp. 189-211. Field excitatory postsynaptic potentials (fEPSPs) were recorded in the stratum radiatum of the CA1 region in response to stimulation of Schaffer collateral/commisural afferents. Slices were superfused continuously with artificial cerebrospinal fluid (ACSF; described in Lee et al., and fEPSPs were sampled every 15 seconds.
The amplitude of fEPSPs responses was measured on-line and plotted over the time course of each experiment. The magnitude of the inhibitory effect of a compound on fEPSP amplitude was expressed as the percentage inhibition, according to the formula: Percentage inhibition=[(Amplitude in ACSF only--Amplitude in drug)[…]Amplitude in ACSF only]×100.

O=S(=O)(O)c1ccc(CCCNc2ncnc3c2ncn3[C@@H]2O[C@H](CO)[C@@H](O)[C@H]2O)cc1 [3-p-sulfophenylpropyl, N^6-3-p-sulfophenylpropyladenosine]
rectal temperature ([1]; i.c.v.): caused rectal temperature depression
rectal temperature ([1]; i.p.): caused rectal temperature depression
sedation [2]: moderate sedation
Ki (A1 adenosine receptors; rat brain, vs 1.0 nM [3H]PIA, read-out: A1-Receptor Ki): 610 ± 39 nM
affinity for the A1 cortical receptors (in words) (A1 adenosine receptors; rat cerebral cortex): demonstrated affinity
lowering of serum glycerol levels (lipolysis [3]; 0.5 mg/kg): 30%
lowering of serum glycerol levels (lipolysis [3]; 1.0 mg/kg): 34%
effect on serum glycerol levels (inhibition of lipolysis, in words) (lipolysis [3]; doses of 0.1-1.0 mmol/kg): lower serum glycerol levels
time of maximum effect on serum glycerol (lipolysis [4]): 30 to 60 min
affinity for the A2 striatal receptors (in words) (A2 adenosine receptors): demonstrated affinity
onset of action ([5]; compared with adenosine and CPA): slightly slower onset of action in this assay than adenosine itself, but a faster onset of action than CPA
IC50 ([5]; hippocampal slices): 1700 nM
agonist action ([5]; hippocampal slices): clearly acts as an agonist
